Measured values as given in US12398120B2, “Substituted hydantoinamides as ADAMTS7 antagonists” (BAYER AKTIENGESELLSCHAFT, priority 2019, dated 2025).

molecular target: ADAMTS4 (Homo sapiens (Human), UniProt O75173); assay: Selectivity assay for ADAMTS-7 modulators: ADAMTS4 (FRET substrate); type: biochemical; conditions: ADAMTS4 (R&D 4307-AD) 50 nM, substrate Dabcyl-EEVKAKVQPY-Glu(Edans)-NH2 1 μM, 120 min, 32° C.
Procedure, shortened: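 Activity read as rising fluorescence after a FRET substrate is cleaved by human ADAMTS4, with reactions started by substrate addition to wells holding compound or DMSO. Percent inhibition plotted against concentration gave IC50.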

ADAMTS4, sequence (O75173 213-685): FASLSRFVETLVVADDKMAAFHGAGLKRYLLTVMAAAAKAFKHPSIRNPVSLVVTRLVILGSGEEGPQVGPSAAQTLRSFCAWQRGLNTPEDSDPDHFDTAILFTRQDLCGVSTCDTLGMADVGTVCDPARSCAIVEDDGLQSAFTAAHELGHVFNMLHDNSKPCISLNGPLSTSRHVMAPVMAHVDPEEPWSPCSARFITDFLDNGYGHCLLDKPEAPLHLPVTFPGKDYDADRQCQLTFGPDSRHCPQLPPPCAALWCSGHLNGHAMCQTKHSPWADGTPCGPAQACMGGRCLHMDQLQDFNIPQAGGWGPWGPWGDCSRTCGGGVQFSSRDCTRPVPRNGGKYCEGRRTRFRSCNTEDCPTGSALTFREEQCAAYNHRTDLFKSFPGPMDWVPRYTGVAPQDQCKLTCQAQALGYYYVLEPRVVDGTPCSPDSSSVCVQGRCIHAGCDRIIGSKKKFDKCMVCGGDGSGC

| Compound | IC50 [µM] |
| --- | --- |
| O=C1NC(=O)[C@](CNC(=O)c2cc(F)ccc2-c2ccc(C3CC3(F)F)cc2)(C2CC2)N1 (stereo partly drawn) [Example 140, N-{[(4R)-4-Cyclopropyl-2,5-Dioxoimidazolidin-4-Yl]Methyl}-4′-(2,2-Difluorocyclopropyl)-4-Fluoro[1,1′-Biphenyl]-2-Carboxamide] | 11 |
| O=C1NC(=O)[C@](CNC(=O)c2ccc(F)cc2-c2ccc(C3CC3(F)F)cc2)(C2CC2)N1 (stereo partly drawn) [Example 142, N-{[(4R)-4-Cyclopropyl-2,5-Dioxoimidazolidin-4-Yl]Methyl}-4′-(2,2-Difluorocyclopropyl)-5-Fluoro[1,1′-Biphenyl]-2-Carboxamide] | 18 |
| O=C1NC(=O)[C@](CNC(=O)c2cc(F)c(F)cc2-c2ccc(C3CC3(F)F)cc2)(C2CC2)N1 (stereo partly drawn) [Example 144, N-{[(4R)-4-Cyclopropyl-2,5-Dioxoimidazolidin-4-Yl]Methyl}-4′-(2,2-Difluorocyclopropyl)-4,5-Difluoro[1,1′-Biphenyl]-2-Carboxamide] | 25 |
| Cn1nccc1C1(CNC(=O)c2ccccc2-c2ccc(C(F)(F)F)cc2)NC(=O)NC1=O (stereo not drawn) [Example 185, Ent-N-{[4-(1-Methyl-1H-Pyrazol-5-Yl)-2,5-Dioxoimidazolidin-4-Yl]Methyl}-4′-(Trifluoromethyl)[Biphenyl]-2-Carboxamide] | 16.5 |
| Cn1nccc1C1(CNC(=O)c2ccccc2-c2ccc(C(F)(F)F)nc2)NC(=O)NC1=O (stereo not drawn) [Example 190, Ent-N-{[4-(1-Methyl-1H-Pyrazol-5-Yl)-2,5-Dioxoimidazolidin-4-Yl]Methyl}-2-[6-(Trifluoromethyl)Pyridin-3-Yl]Benzamide] | 12 |
| Cn1nccc1C1(CNC(=O)c2ccccc2-c2ccc(S(C)(=O)=O)cc2)NC(=O)NC1=O (stereo not drawn) [Example 194, Ent-N-{[4-(1-Methyl-1H-Pyrazol-5-Yl)-2,5-Dioxoimidazolidin-4-Yl]Methyl}-4′-(Methylsulfonyl)[Biphenyl]-2-Carboxamide] | 8.9 |

These reach a lower IC50. Values come first.

| IC50 [µM] | Compound |
| --- | --- |
| 7.9 | Cc1scnc1C1(CNC(=O)c2ccccc2-c2ccc(C(F)(F)F)nc2)NC(=O)NC1=O (stereo not drawn) [Example 173, Ent-N-{[4-(5-Methyl-1,3-Thiazol-4-Yl)-2,5-Dioxoimidazolidin-4-Yl]Methyl}-2-[6-(Trifluoromethyl)Pyridin-3-Yl]Benzamide] |
| 4.6 | Cn1ccnc1C1(CNC(=O)c2cc(F)c(F)cc2-c2ccc(C3CC3(F)F)cc2)NC(=O)NC1=O (stereo not drawn) [Example 143, 4′-(2,2-Difluorocyclopropyl)-4,5-Difluoro-N-{[4-(1-Methyl-1H-Imidazol-2-Yl)-2,5-Dioxoimidazolidin-4-Yl]Methyl}[1,1′-Biphenyl]-2-Carboxamide] |
| 3.6 | Cn1ccnc1C1(CNC(=O)c2ccc(F)cc2-c2ccc(C3CC3(F)F)cc2)NC(=O)NC1=O (stereo not drawn) [Example 141, 4′-(2,2-Difluorocyclopropyl)-5-Fluoro-N-{[4-(1-Methyl-1H-Imidazol-2-Yl)-2,5-Dioxoimidazolidin-4-Yl]Methyl}[1,1′-Biphenyl]-2-Carboxamide] |
| 3.05 | Cn1ccnc1C1(CNC(=O)c2ccccc2-c2ccc(C(F)(F)F)nc2)NC(=O)NC1=O (stereo not drawn) [Example 158, Ent-N-{[4-(1-Methyl-1H-Imidazol-2-Yl)-2,5-Dioxoimidazolidin-4-Yl]Methyl}-2-[6-(Trifluoromethyl)Pyridin-3-Yl]Benzamide] |
| 2.8 | Cc1ccc(C(=O)NC[C@@]2(C3CC3)NC(=O)NC2=O)c(-c2ccc(C(F)(F)F)cc2)c1C [Example 145, N-{[(4R)-4-Cyclopropyl-2,5-Dioxoimidazolidin-4-Yl]Methyl}-5,6-Dimethyl-4′-(Trifluoromethyl)[1,1′-Biphenyl]-2-Carboxamide] |
| 1.84 | Cn1ccnc1C1(CNC(=O)c2ccccc2-c2ccc(C(F)(F)F)cc2)NC(=O)NC1=O (stereo not drawn) [Example 148, Ent-N-{[4-(1-Methyl-1H-Imidazol-2-Yl)-2,5-Dioxoimidazolidin-4-Yl]Methyl}-4′-(Trifluoromethyl)[Biphenyl]-2-Carboxamide] |
